Experiment [1] has as its system BJ. Put plainly: cytotoxicity toward BJ-TERT-LT-ST fibroblasts, dose response, cell-based, RAS-independent, luminescence (AID 1935).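 Further: BJ fibroblasts immortalized with TERT plus LT and ST oncogenes.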 Format: functional. Conditions: Homo sapiens.
The nature of experiment [2]: inhibitors of firefly luciferase expression or activity, dose response, H4 neuroglioma cells, luminescence (AID 1990). Format: functional, cell-based.
For experiment [3], the system named is BJ. The experiment is described as follows: cytotoxicity toward BJ-TERT fibroblasts, dose response, cell-based, RAS-independent, luminescence (AID 1933). Format: functional. The conditions noted are these: Homo sapiens.
Experiment [4] in a line: Luminescence Cell-Based Dose Response HTS to Identify Inhibitors of 5'UTR Stem-Loop Driven Prion Protein mRNA Translation in H4 Neuroglioblastoma Cells. [Related pubchem assays: 1827 (Project Summary), 1813 (Primary HTS)]. Format: functional.
Experiment [5] concerns BJ. The experiment is described as follows: cytotoxicity toward Ras-transformed BJeLR fibroblasts, dose response, cell-based, alamar blue fluorescence, cherrypicked samples (AID 2631).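 Further: confirmatory dose-response assay in RAS-dependent BJ fibroblasts engineered with TERT, LT and ST, with cytotoxicity read by fluorescence.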 The conditions noted are these: Homo sapiens. Format: functional. Background: Resazurin is reduced to fluorescent resorufin, in cell work by metabolically active cells.
Experiment [6] in a line: cytotoxicity toward DRD oncogenic fibroblasts, dose response, cell-based, non-viral oncogenic, luminescence (AID 1934). Format: functional. The conditions noted are these: Homo sapiens.
Experiment [7] can be described thus: inhibitors of SNCA 5'UTR-driven reporter translation, confirmation, H4 neuroglioma cells, luminescence (AID 1988). Format: functional, cell-based.
The subject of experiment [8] is BJ. The experiment is described as follows: cells. The conditions noted are these: Homo sapiens. Format: functional, cell-based.
Experiment [9] can be described thus: cytotoxicity toward NIH3T3 fibroblasts, dose response, counter-screen, cell-based, ATP luminescence, mouse fibroblasts (AID 2010).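 Further: cells exposed to compound for about 90 hours before reading.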 Format: functional.
Experiment [10] deals with Beta-2 adrenergic receptor (Homo sapiens, UniProt P07550). Put plainly: beta2AR agonists driving receptor internalization, dose response, cell-based, FAP fluorogen, flow cytometry, cherry pick 1 (AID 588763). Format: functional. (In general: Flow cytometry measures light scatter and fluorescence of single cells or particles in a stream.)
Beta-2 adrenergic receptor, sequence (P07550 whole entry): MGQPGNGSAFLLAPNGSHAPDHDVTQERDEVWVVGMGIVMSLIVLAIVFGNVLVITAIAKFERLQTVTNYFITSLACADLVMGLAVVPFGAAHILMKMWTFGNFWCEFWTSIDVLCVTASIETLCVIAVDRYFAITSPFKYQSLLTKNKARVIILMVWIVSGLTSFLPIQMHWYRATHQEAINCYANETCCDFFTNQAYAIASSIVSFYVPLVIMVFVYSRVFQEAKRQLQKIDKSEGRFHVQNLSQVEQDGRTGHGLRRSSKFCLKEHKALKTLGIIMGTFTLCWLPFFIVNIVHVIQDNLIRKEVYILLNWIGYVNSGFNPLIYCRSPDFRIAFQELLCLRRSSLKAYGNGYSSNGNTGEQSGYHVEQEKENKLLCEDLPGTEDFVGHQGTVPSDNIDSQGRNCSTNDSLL
Experiment [11] in a line: inhibitors of intracellular T. cruzi replication, confirmation, NIH3T3 host cells, beta-gal luminescence (AID 2044).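 Further: intracellular parasites grown in NIH/3T3 mouse fibroblasts as host cells; luminescent beta-galactosidase reporter signal from transgenic T. cruzi replicating inside host cells; inhibitors lower the luminescence signal.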 Format: functional, cell-based.
The target of experiment [12] is T1, Fatty acid synthase (Homo sapiens, UniProt P49327). The experiment is described as follows: FAS thioesterase domain inhibitors, dose response, biochemical, endpoint fluorescence intensity, uHTS hits (AID 624327).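 Further: fluorescence from hydrolysis of an O-methyl fluorescein acyl ester substrate by the enzyme.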 Format: functional.
T1 sequence (P49327 whole entry, the tested form may be a part): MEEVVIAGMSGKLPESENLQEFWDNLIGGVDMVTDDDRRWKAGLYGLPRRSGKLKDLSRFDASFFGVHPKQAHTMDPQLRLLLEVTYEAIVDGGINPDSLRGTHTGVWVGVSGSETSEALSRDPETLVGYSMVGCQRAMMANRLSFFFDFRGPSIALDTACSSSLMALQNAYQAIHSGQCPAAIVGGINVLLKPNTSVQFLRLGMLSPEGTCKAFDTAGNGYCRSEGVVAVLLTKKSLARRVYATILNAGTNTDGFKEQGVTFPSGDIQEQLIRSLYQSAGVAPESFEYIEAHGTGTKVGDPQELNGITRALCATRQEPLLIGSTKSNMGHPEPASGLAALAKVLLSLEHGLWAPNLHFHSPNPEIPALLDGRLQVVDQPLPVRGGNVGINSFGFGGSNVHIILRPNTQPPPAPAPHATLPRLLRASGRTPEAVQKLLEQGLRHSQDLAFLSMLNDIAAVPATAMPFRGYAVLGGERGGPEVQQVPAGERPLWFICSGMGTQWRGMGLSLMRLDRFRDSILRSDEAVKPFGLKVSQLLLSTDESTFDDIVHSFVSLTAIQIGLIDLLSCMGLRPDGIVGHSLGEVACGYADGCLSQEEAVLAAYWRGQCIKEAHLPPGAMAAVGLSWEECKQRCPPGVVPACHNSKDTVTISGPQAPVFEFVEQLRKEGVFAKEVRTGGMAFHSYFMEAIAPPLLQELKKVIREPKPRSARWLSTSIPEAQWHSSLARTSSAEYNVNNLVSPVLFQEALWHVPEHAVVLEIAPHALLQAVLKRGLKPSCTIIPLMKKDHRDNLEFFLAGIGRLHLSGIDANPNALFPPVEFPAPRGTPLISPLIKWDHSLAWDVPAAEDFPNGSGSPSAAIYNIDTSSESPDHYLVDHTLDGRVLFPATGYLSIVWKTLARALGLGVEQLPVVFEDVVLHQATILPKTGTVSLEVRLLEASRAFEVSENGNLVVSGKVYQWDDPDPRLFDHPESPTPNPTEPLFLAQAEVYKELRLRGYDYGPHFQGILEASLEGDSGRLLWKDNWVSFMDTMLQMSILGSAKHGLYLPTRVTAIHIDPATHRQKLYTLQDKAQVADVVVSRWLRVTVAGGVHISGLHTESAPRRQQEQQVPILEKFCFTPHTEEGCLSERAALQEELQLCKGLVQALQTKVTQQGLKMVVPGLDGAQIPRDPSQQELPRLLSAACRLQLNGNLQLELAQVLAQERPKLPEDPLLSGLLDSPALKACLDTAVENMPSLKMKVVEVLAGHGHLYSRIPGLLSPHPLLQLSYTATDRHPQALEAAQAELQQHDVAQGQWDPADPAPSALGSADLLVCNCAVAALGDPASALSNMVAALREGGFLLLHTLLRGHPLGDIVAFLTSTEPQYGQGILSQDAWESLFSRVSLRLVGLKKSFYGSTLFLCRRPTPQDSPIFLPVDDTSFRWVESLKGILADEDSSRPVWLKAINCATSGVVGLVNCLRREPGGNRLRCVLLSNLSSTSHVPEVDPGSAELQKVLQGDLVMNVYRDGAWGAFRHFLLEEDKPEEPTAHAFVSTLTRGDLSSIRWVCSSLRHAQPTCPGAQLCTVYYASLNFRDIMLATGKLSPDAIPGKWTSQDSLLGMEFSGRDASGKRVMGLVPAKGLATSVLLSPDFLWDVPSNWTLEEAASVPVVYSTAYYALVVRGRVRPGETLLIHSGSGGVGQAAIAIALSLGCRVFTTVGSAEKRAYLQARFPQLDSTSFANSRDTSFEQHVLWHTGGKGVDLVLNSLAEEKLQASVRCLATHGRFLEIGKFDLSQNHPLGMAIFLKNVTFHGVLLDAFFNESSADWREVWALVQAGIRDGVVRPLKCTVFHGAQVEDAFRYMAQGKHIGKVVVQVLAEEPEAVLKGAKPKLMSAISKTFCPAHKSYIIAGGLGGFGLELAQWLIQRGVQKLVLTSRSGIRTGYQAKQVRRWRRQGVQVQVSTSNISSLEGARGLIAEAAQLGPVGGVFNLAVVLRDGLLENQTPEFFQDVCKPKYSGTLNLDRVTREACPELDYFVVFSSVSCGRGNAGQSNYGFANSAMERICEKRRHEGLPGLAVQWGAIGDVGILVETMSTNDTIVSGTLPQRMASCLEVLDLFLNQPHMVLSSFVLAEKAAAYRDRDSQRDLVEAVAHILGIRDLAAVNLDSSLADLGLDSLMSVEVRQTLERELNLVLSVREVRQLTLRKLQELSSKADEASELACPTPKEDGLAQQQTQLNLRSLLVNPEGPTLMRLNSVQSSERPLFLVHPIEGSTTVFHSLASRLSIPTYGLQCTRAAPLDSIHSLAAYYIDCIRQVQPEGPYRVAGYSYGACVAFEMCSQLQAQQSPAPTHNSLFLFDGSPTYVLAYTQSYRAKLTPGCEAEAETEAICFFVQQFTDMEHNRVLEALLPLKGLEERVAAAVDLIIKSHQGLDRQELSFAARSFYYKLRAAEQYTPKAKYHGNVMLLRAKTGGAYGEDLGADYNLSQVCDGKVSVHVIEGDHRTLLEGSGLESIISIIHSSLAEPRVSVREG
The target in experiment [13] is T1, Fatty acid synthase. The experiment is described as follows: FAS thioesterase domain inhibitors, dose response, biochemical, kinetic fluorescence intensity (AID 624326).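 Further: rate of fluorescence rise from hydrolysis of a fluorogenic O-methyl fluorescein ester substrate.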 Format: functional.
The next experiment has as its target Beta Lactamase (Pseudomonas aeruginosa, UniProt Q932Y6). The experiment is described as follows: beta-lactamase reporter inhibitor potency, dose response, artefact control for TLR9-MyD88 binding inhibitor project, BLA reporter cells, FRET fluorescence (AID 588341).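 Further: cell based assay in CHO-K1 cells stably expressing beta-lactamase.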 Format: cell-based.
The subject of another experiment is CHO. The experiment is described as follows: cytotoxicity in TLR9-MyD88 CHO cells, dose response, cytotoxicity control for TLR9-MyD88 binding inhibitor project, cell-based, luminescence (AID 588339).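 Further: CHO cells stably coexpressing TLR9 and MyD88 fusions from primary screen; compound exposure lasted 48 hours before viability readout.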 Format: functional, hamster. The conditions noted are these: Cricetulus griseus.
Experiment [14] concerns the target Protein disulfide-isomerase (Homo sapiens, UniProt P07237). Put plainly: PDI inhibitors, insulin aggregation turbidity, dose response, biochemical, absorbance, cherry-picked samples (AID 602350). Format: functional.
The target of experiment [15] is T2, CAAX prenyl protease 2 (Homo sapiens, UniProt Q9Y256).
T2 sequence (Q9Y256 whole entry): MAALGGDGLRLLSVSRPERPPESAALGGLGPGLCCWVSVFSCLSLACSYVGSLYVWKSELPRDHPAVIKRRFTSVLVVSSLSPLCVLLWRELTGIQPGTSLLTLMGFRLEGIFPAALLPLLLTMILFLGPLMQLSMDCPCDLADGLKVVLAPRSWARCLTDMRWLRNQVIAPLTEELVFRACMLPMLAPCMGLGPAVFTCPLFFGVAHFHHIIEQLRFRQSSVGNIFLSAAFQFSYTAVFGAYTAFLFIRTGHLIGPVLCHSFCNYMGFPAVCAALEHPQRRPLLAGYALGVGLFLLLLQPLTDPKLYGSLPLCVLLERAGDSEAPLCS
The experiment is described as follows: human Rce1 protease inhibitors, dose response, biochemical, yeast membranes, quenched-peptide fluorescence, cherry-pick (AID 588849).

The next experiment addresses T3, Protein RecA (Mycobacterium tuberculosis, UniProt P9WHJ3).
T3 sequence (P9WHJ3 whole entry): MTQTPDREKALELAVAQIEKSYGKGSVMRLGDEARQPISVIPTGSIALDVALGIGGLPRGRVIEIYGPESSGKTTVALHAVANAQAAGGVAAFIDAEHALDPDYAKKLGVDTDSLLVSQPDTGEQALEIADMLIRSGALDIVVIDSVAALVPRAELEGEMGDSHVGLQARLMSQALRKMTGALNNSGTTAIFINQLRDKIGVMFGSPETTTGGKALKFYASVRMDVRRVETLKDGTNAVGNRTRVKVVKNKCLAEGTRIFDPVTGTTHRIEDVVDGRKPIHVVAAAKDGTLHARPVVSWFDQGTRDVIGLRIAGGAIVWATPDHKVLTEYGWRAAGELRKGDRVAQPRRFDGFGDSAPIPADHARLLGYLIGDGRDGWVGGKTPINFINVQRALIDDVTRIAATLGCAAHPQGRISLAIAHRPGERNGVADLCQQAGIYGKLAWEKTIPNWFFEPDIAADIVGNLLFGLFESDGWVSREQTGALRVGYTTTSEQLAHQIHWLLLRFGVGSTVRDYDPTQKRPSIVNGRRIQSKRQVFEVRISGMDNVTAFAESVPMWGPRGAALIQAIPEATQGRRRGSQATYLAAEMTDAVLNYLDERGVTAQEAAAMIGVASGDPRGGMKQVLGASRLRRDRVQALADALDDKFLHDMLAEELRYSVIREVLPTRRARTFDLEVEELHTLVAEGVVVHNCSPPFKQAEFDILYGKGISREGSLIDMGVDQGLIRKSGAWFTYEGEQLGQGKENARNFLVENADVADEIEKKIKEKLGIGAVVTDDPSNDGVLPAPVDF
Put plainly: Fluorescence Cell-Free Homogeneous Dose Retest to Identify Inhibitors of RecA-Intein Splicing Activity. [Related pubchem assays (depositor defined):AID2097, AID2223, AID489010, AID492950]. Format: functional.

Experiment [16] is described as follows: cells. Format: functional, cell-based.
Experiment [17] deals with T4, Replicative DNA helicase DnaB (Mycobacterium tuberculosis, UniProt P9WMR3).
T4 sequence (P9WMR3 whole entry): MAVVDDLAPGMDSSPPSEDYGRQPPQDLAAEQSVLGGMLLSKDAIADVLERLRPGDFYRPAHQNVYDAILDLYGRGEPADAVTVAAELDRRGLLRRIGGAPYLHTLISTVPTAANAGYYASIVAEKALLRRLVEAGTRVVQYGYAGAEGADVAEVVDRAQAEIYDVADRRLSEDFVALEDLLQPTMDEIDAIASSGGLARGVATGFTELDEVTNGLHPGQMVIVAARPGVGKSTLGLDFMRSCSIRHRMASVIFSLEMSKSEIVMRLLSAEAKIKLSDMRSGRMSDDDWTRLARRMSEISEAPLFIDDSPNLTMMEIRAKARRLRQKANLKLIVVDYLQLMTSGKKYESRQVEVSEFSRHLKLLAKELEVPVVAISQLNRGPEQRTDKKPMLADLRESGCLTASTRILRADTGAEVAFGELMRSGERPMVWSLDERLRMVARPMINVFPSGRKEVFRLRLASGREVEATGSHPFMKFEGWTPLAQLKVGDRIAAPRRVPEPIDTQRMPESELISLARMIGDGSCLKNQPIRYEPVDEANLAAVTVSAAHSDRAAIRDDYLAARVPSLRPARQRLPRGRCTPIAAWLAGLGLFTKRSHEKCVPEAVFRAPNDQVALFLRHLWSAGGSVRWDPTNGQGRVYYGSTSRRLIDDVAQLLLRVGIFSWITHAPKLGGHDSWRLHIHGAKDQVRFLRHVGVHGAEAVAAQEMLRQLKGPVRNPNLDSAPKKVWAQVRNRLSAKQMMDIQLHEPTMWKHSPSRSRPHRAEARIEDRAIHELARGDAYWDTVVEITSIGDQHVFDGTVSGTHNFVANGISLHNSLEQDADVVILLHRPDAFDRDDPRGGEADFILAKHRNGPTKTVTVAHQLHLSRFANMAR
Put plainly: DnaB intein splicing inhibitors, dose response, biochemical, cell-free fluorescence (AID 449749). Format: functional.

Experiment [18] in a line: Shn3 3'UTR reporter inhibitors, dose response, cell-based, Clone20 osteoblasts, firefly luciferase, cherry-picked (AID 624132).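 Further: firefly luciferase luminescence from reporter carrying the Shn3 3'UTR in osteoblasts.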 Format: functional.
The nature of experiment [19]: cells. Format: functional, cell-based. This is another data set of the same source.
A short description of experiment [20]: control 3'UTR Renilla luciferase suppression, dose response, counter-screen for Shn3 inhibitor project, cell-based, Clone20-Shn3RL, cherry-picked (AID 624133). Format: functional.
The next experiment concerns the target Trypsin (Sus scrofa, UniProt P00761). The experiment is described as follows: porcine trypsin inhibitors, dose response, selectivity assay for Rce1 protease inhibitor project, biochemical, quenched peptide fluorescence, cherry-pick (AID 488789).
Experiment [21] addresses T5, CAAX prenyl protease 2 (Saccharomyces cerevisiae S288c, UniProt Q03530).
T5 sequence (Q03530 whole entry): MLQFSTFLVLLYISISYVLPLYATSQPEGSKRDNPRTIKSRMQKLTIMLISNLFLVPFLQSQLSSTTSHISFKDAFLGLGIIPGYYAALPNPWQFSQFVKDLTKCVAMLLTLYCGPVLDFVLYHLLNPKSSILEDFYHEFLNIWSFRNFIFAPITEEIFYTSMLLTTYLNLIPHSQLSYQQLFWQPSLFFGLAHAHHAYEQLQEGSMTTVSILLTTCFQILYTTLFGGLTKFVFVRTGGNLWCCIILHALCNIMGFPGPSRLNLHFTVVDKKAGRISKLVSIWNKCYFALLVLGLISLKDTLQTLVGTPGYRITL
Format: biochemical.

Experiment [22] is described as follows: HepG2 cell cytotoxicity, dose response, cytotoxicity control for Shn3 inhibitor project, CellTiter-Glo, cherry-picked (AID 624134). Format: functional, cell-based.

Active and inactive are the calls of the source.

Protein disulfide-isomerase, sequence (P07237 whole entry): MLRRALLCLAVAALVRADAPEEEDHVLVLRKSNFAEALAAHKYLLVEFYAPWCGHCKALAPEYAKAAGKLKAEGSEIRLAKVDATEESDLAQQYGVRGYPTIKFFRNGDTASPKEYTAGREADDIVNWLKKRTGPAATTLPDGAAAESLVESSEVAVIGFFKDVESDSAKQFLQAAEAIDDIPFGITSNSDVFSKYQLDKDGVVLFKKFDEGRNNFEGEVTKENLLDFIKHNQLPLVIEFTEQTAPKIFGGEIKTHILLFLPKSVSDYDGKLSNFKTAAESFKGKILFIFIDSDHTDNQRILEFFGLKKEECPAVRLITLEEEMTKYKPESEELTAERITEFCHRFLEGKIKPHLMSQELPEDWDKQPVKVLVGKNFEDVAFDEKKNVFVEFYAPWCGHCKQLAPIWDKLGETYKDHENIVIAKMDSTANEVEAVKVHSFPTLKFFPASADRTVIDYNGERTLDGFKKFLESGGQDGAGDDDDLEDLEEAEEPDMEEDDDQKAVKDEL
Beta Lactamase, sequence (Q932Y6 whole entry, the tested form may be a part): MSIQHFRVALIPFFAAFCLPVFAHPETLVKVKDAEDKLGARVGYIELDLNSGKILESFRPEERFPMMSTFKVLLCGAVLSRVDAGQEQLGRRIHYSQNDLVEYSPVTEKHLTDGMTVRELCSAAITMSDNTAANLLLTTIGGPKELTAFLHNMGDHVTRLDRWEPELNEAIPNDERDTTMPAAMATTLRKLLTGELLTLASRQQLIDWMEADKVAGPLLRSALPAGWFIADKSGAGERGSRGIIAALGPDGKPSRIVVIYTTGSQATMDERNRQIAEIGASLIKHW
Trypsin, sequence (P00761 whole entry): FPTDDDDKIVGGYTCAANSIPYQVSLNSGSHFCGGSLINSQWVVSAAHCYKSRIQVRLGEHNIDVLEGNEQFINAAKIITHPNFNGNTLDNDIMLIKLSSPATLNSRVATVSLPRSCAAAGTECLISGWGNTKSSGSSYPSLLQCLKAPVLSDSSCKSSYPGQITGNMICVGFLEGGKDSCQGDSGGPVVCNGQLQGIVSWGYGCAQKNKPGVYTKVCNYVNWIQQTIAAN

By EC50 is commonly meant the concentration giving half of the maximal effect. With `COc1cccc(CSc2nc3ccccc3cc2C=O)c1`, the EC50 in the experiment with BJ [1] was 1.17 µM (active); in [2], 16.6 µM (active); in the experiment on BJ [3], 0.944 µM (inconclusive); in experiment [4], 17.7 µM (active); in the experiment on BJ [5] it was 0.301 µM (active); in [6] it was 1.27 µM (active). Also, the EC50 is 13.7 µM (active) in experiment [7] and 21.6 µM (active) with BJ [8].
Consider `CCN(c1ccc2c(c1)OCO2)S(=O)(=O)c1cc(Br)cc2c1N(C(C)=O)CC2`, for which the EC50 in experiment [9] was > 60 µM (not active); in experiment [10], 10.5 µM (inactive); in [11], 0.891 µM (active).
For orientation: IC50 means the point on the concentration scale where inhibition reaches its midpoint. Consider `Cc1ccc(C(=O)N/C(=C/c2ccc(-c3ccc([N+](=O)[O-])cc3)o2)C(=O)NCCCN(C)C)cc1`, for which the half-maximal effective concentration (EC50) in experiment [2], in experiment [4] and in experiment [7] was > 120 µM (not active) in each case. Further, the IC50 at Fatty acid synthase [12] is 13.8 µM (active); at Fatty acid synthase [13], 5.71 µM (active); at Beta Lactamase it was 6.55 µM (active); with CHO it was 22.9 µM (inactive).
A word on the AC50: it is the concentration giving half of the maximal activity seen. On to `CCN1C(=O)C2C(c3ccccc3F)NC(Cc3ccc(O)cc3)(C(=O)OC)C2C1=O` (stereo not given), for which the AC50 in [14] was 10.2 µM (active).
Still for that read-out and setting: the result for `CCN1CC2(COC(=O)c3ccccc3N)CCC(OC)C34C5CC6C(OC)CC(O)(C5C6OC)C(O)(C(OC)C23)C14` (stereo not given) reads 19.5 µM (active).
With `COc1ccccc1-c1cc(C(F)(F)F)nc(S(=O)(=O)CCCC(=O)NCc2ccc(F)cc2)n1`, the AC50 is 10.8 µM (active) at CAAX prenyl protease 2 [15]; 5.72 µM (active) in [17]; 4.43 µM (active) in experiment [18]; 23.6 µM (active) in experiment [20]; 2.3 µM (active) at Trypsin; 7.9 µM (active) at CAAX prenyl protease 2 [21]. In addition, the AC50 in experiment [22] was > 70 µM (inactive). Besides, the concentration for a half-maximal effect (EC50) on Protein RecA was 3.61 µM (active); in “cells [16]”, > 350 µM (not active); in the experiment “cells [19]”, > 350 µM (not active).
For `CCC(C)C(=O)OCC1(c2ccc(C)cc2OC(=O)C(C)C)CO1` (stereo not given), the EC50 in the experiment on BJ [5] is 8.58 µM (active).
In the case of `O=C(NCc1ccccc1C(F)(F)F)c1cccc2c1C(=O)c1ccc(N3CCC(N4CCCCC4)CC3)cc1S2(=O)=O`, the IC50 was 5.89 µM (active) at Beta Lactamase and 8.71 µM (active) in the experiment with CHO. For the same compound, the results for the AC50 in experiment [18] and in experiment [22] were 21.2 µM (active) and 9.77 µM (active), respectively.
